From ChEMBL document CHEMBL1201862, “PubChem BioAssay data set” (2004)
Calls of active or inactive are those of the source.

Assays:
[1] = target: T1, Tyrosine-protein phosphatase non-receptor type 7 (Homo sapiens, UniProt P35236); experiment: SAR analysis of chemical inhibitors of HePTP using a Fluorescent assay - Set 2. [Related pubchem assays (depositor defined):AID1059, AID1077, AID1661, AID2085, AID521]; format: functional
T1 sequence (P35236 whole entry): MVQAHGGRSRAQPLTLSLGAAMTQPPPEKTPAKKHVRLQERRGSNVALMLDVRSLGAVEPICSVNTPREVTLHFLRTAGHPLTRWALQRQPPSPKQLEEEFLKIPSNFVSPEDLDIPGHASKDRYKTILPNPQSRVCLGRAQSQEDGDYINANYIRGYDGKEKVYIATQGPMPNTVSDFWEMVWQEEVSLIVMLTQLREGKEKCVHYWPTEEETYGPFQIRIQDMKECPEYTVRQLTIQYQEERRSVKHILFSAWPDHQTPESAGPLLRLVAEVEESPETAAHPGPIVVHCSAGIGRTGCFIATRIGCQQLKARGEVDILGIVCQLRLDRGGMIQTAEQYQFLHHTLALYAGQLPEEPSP

[2] = target: Dual specificity protein phosphatase 3 (Homo sapiens, UniProt P51452); experiment: SAR VHR1 Fluorescent Assay for In Vitro dose response studies Set 2. [Related pubchem assays (depositor defined):AID1654, AID1661, AID1878]; format: functional
Dual specificity protein phosphatase 3, sequence (P51452 whole entry): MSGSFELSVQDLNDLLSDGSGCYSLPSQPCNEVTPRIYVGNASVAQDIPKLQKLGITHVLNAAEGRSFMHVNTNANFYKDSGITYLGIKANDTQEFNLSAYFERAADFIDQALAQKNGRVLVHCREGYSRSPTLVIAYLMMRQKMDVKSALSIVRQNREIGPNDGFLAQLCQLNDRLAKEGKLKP

CAAX prenyl protease 2 [3] = target: CAAX prenyl protease 2 (Saccharomyces cerevisiae S288c, UniProt Q03530); format: biochemical
CAAX prenyl protease 2 (Saccharomyces cerevisiae S288c, UniProt Q03530), sequence (Q03530 whole entry): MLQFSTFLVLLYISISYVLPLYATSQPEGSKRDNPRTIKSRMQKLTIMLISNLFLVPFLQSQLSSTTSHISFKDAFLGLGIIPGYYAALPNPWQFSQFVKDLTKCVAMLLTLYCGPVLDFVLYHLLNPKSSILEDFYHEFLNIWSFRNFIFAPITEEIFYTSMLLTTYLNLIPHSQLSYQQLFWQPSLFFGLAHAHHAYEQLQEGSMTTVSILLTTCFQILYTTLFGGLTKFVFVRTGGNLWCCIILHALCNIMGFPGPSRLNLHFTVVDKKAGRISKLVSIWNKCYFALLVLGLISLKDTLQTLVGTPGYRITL

CAAX prenyl protease 2 [4] = target: T2, CAAX prenyl protease 2 (Homo sapiens, UniProt Q9Y256); experiment: human Rce1 protease inhibitors, dose response, biochemical, yeast membranes, quenched-peptide fluorescence, cherry-pick (AID 588849)
T2 sequence (Q9Y256 whole entry): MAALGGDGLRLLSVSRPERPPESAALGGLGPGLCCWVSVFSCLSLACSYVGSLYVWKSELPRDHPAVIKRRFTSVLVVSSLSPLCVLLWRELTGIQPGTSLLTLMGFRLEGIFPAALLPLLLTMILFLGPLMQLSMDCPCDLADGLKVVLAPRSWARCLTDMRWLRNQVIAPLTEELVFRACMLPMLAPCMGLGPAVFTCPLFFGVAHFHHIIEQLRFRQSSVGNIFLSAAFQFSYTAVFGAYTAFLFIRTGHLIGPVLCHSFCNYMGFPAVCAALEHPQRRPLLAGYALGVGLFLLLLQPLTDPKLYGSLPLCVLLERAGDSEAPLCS

[5] = target: DNA damage-inducible transcript 3 protein (Mus musculus, UniProt P35639); format: functional, Cricetulus griseus
DNA damage-inducible transcript 3 protein, sequence (P35639 whole entry): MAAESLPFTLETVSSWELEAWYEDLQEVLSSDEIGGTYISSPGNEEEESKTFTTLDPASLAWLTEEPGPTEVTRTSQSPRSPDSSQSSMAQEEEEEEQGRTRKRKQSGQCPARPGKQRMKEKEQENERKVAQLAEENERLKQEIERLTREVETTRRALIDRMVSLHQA

[6] = inhibitors of firefly luciferase expression or activity, dose response, H4 neuroglioma cells, luminescence (AID 1990); format: functional, cell-based
[7] = luciferase reporter signal reduction – luminescence, H4-C neuroglioblastoma cells, dose response (AID 2458); format: functional, cell-based;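 further: H4 neuroglioblastoma cells stably carrying a luciferase reporter gene fusion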
cells = format: functional, cell-based
[8] = Luminescence Cell-Based Dose Response HTS to Identify Inhibitors of 5'UTR Stem-Loop Driven Prion Protein mRNA Translation in H4 Neuroglioblastoma Cells. [Related pubchem assays: 1827 (Project Summary), 1813 (Primary HTS)]; format: functional
[9] = inhibitors of SNCA 5'UTR-driven reporter translation, confirmation, H4 neuroglioma cells, luminescence (AID 1988); format: functional, cell-based
[10] = cytotoxicity in HPDE-C7 cells, cell-based, fluorescence, HTS (AID 430); format: functional; conditions: Homo sapiens
[11] = cytotoxicity in KRAS-transformed pancreatic duct cells, primary screen, cell-based, fluorescence, HTS (AID 431); format: functional; conditions: Homo sapiens;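 further: cell line used: HPDE-C7K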
J774.A1 = experiment: Confirmation of image-based Screening Assay for Inhibitors of Phagocytosis. [Related pubchem assays (depositor defined):AID1029, AID1643]; format: functional, cell-based; conditions: Mus musculus
[12] = inhibitors of SNCA 5'UTR-driven translation, confirmation, luminescence, H4 neuroglioblastoma cells, dose confirmation (AID 2454); format: functional, cell-based;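 further: H4 neuroglioblastoma cells carrying an alpha-synuclein 5'UTR luciferase reporter; potency for inhibition of the luciferase signal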
[13] = cytotoxicity in HEK-293T cells, dose response, cytotoxicity control for TCR NF-kB inhibitor project, luminescence, T-cell screen hits (AID 489026); format: functional, cell-based;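 further: cells exposed to compound about 14 hours before the viability readout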
[14] = Artemis endonuclease inhibitor potency, dose response, biochemical, fluorescence intensity (AID 720701); format: functional;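 further: Artemis endonuclease enzyme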
Troponin, cardiac muscle = Troponin, cardiac muscle (Homo sapiens, UniProt P19429+P45379+P63316); experiment: Fluorescence-based biochemical high throughput dose response assay for activators of the calcium sensitivity of cardiac Regulated Thin Filaments (RTF). [Related pubchem assays (depositor defined):AID493008, AID493018, AID504382, AID504383]; format: protein-complex assay
Cannabinoid receptor 2 [15] = target: T3, Cannabinoid receptor 2 (Homo sapiens, UniProt P34972); experiment: SAR analysis of antagonists of the Cannabinoid Receptor 2 using an Image-Based Assay - Set 2. [Related pubchem assays (depositor defined):AID1961, AID1965]; format: functional
T3 sequence (P34972 whole entry): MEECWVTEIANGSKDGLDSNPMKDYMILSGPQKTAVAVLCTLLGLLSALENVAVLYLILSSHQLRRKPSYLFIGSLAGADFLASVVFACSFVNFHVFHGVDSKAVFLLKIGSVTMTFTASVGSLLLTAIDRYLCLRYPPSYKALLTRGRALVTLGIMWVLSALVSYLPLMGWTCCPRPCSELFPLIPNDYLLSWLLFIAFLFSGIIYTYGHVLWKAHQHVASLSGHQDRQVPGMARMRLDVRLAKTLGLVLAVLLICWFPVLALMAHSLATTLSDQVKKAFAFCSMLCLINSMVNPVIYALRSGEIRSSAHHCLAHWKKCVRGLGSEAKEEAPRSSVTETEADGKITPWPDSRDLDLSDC

[16] = target: T4, G-protein coupled receptor 55 (Homo sapiens, UniProt Q9Y2T6); experiment: SAR analysis of selective Agonists of GPR55 using an Image-Based Assay - Set 2. [Related pubchem assays (depositor defined):AID1961, AID1965]; format: functional
T4 sequence (Q9Y2T6 whole entry): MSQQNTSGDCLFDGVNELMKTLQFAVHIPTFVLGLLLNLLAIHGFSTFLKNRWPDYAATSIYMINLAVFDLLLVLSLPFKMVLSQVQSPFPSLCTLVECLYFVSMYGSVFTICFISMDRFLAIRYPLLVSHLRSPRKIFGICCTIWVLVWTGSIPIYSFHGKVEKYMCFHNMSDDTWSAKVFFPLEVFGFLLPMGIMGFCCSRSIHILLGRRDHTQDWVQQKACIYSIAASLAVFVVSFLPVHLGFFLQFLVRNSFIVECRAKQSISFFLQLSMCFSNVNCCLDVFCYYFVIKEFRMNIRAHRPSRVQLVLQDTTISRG

Cannabinoid receptor 2 [17] = target: T3, Cannabinoid receptor 2; experiment: SAR analysis of agonists of the Cannabinoid Receptor 2 using an Image-Based Assay - Set 2. [Related pubchem assays (depositor defined):AID1961, AID1965]; format: functional
[18] = target: T5, G-protein coupled receptor 35 (Homo sapiens, UniProt Q9HC97); experiment: SAR analysis of Agonists of the GPR35 Receptor using an Image-Based Assay - Set 3. [Related pubchem assays (depositor defined):AID1961, AID1965]; format: functional
T5 sequence (Q9HC97 whole entry): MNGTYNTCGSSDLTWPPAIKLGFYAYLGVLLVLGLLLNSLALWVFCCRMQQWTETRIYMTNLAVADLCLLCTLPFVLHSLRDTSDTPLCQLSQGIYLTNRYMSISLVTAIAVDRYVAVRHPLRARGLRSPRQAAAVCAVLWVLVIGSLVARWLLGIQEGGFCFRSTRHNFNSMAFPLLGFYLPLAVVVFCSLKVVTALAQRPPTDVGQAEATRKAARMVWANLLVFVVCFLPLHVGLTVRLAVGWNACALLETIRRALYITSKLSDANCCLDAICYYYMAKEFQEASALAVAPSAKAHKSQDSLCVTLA

Cannabinoid receptor 1 [19] = target: T6, Cannabinoid receptor 1 (Homo sapiens, UniProt P21554); experiment: SAR analysis of antagonists of the Cannabinoid Receptor 1 using an Image-Based Assay - Set 3. [Related pubchem assays (depositor defined):AID1961, AID1965]; format: functional
T6 sequence (P21554 whole entry): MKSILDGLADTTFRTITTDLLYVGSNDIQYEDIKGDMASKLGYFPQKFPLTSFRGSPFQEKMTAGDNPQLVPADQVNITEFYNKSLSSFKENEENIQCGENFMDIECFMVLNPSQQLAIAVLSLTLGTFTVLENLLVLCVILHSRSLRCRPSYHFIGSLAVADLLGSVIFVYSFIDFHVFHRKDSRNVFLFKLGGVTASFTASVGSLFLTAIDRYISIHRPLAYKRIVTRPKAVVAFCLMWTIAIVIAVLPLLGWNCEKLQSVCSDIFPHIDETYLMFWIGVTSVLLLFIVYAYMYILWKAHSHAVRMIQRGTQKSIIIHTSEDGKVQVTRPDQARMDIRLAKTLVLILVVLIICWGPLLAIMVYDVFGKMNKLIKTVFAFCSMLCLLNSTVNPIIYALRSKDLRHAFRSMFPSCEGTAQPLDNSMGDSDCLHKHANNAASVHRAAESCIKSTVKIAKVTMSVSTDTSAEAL

Cannabinoid receptor 1 [20] = target: T6, Cannabinoid receptor 1; experiment: SAR analysis of agonists of the Cannabinoid Receptor 1 using an Image-Based Assay - Set 3. [Related pubchem assays (depositor defined):AID1961, AID1965]; format: functional
[21] = target: T5, G-protein coupled receptor 35; experiment: SAR analysis of Antagonists of the GPR35 Receptor using an Image-Based Assay - Set 4. [Related pubchem assays (depositor defined):[…]]; format: functional
Coagulation factor XII = target: T7, Coagulation factor XII (Homo sapiens, UniProt P00748); experiment: Factor XIIa Dose Response Confirmation from Single Well HTS. [Related pubchem assays (depositor defined):AID701]; format: functional
T7 sequence (P00748 whole entry): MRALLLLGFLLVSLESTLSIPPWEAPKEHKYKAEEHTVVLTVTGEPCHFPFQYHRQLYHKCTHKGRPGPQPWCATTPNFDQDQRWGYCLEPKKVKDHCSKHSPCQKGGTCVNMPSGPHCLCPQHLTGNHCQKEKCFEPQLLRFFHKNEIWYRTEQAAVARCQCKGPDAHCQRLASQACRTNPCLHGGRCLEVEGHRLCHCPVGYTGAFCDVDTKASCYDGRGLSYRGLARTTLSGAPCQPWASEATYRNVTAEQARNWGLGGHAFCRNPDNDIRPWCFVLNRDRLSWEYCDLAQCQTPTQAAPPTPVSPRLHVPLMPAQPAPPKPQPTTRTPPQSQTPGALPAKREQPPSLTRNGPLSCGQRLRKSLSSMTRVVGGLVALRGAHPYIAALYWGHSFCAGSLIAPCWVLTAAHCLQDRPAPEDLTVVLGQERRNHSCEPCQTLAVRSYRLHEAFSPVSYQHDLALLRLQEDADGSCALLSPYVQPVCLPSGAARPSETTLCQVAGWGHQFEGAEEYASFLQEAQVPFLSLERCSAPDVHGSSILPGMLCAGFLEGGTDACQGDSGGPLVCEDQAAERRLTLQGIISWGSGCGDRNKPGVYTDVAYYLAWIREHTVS

Hexokinase = Hexokinase (Trypanosoma brucei, UniProt Q38C41); experiment: Confirmation assay for inhibitors of Trypanosoma brucei hexokinase 1-Analogue-first series. [Related pubchem assays (depositor defined):AID1430, AID1632, AID2516, AID2560, AID2579, AID2600, AID449725, AID492951]; format: functional
Hexokinase, sequence (Q38C41 whole entry): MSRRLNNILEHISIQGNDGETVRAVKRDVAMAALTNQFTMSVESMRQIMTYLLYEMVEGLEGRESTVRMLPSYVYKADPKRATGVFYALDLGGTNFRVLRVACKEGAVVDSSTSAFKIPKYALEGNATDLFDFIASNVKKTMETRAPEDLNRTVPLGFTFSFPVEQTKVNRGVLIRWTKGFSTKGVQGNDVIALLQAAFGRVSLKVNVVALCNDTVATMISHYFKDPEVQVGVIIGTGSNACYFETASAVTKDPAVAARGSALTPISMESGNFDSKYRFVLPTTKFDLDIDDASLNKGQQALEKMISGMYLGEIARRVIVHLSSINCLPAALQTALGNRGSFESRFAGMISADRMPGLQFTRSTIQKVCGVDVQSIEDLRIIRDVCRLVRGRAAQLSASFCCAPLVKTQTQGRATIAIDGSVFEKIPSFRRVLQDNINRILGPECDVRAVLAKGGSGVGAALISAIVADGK

[22] = tested on: Streptococcus sp. 'group A'; experiment: growth inhibition of control SK(-) GAS strain, dose response, counter-screen for streptokinase expression inhibitor project, luminescence, kanamycin, BacTiterGlo, confirmation (AID 1900); format: functional, organism-based; conditions: Streptococcus sp. 'group A'
Streptokinase A = target: T8, Streptokinase A (Streptococcus pyogenes serotype M1, UniProt P10520); experiment: S. pyogenes streptokinase expression inhibitors, potency, dose response, plasminogen activation absorbance, OD405 (AID 1914); format: functional, Streptococcus pyogenes M1 GAS;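 further: secreted streptokinase activity via plasminogen activation per viability signal from cell pellet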
T8 sequence (P10520 whole entry): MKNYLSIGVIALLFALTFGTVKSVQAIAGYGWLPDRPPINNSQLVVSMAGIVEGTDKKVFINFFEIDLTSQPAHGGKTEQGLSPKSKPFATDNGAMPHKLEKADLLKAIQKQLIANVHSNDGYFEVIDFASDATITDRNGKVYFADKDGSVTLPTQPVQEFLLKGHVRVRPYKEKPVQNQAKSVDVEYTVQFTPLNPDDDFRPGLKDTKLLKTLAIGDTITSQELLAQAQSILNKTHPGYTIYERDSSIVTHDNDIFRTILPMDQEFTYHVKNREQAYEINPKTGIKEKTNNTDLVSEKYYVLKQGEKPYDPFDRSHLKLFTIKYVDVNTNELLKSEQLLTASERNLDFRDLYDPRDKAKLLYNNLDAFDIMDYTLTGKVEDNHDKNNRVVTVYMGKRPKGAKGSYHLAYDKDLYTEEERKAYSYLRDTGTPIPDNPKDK

[23] = target: T4, G-protein coupled receptor 55; experiment: GPR55 antagonists blocking LPI-driven arrestin recruitment, primary screen, imaging, U2OS, beta-arrestin-GFP, LPI agonist (AID 2013); format: functional;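 further: antagonist potency measured as reduced agonist-driven arrestin aggregation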
Streptococcus = experiment: Group A Streptococcus viability loss, dose response, counter-screen for streptokinase expression inhibitor project, luminescence, BacTiterGlo (AID 1915); format: functional, organism-based; conditions: Streptococcus;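 further: potency for reduction of bacterial viability or growth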
[24] = Luminescence Cell-Based Dose Retest to Confirm Inhibitors of Cancer Stem Cells. [Related pubchem assays (depositor defined):AID2717, AID2721]; format: functional, Homo sapiens; conditions: Homo sapiens
[25] = target: T9, Ubiquitin-conjugating enzyme E2 N (Homo sapiens, UniProt P61088); format: functional;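 further: Dose-response confirmation in a TR-FRET assay detecting UBC13-driven polyubiquitin chain formation, inhibition measured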
T9 sequence (P61088 whole entry): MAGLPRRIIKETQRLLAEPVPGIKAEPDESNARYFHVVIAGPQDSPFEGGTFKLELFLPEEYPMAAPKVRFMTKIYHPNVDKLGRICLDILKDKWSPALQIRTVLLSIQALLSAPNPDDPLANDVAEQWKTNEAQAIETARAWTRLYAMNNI

Integrin alpha-4 = Integrin alpha-4 (Homo sapiens, UniProt P13612); experiment: VLA-4 integrin allosteric ligands, SAR follow-up, cell-based, LIBS antibody binding, flow cytometry (AID 488791); format: functional
Integrin alpha-4, sequence (P13612 whole entry): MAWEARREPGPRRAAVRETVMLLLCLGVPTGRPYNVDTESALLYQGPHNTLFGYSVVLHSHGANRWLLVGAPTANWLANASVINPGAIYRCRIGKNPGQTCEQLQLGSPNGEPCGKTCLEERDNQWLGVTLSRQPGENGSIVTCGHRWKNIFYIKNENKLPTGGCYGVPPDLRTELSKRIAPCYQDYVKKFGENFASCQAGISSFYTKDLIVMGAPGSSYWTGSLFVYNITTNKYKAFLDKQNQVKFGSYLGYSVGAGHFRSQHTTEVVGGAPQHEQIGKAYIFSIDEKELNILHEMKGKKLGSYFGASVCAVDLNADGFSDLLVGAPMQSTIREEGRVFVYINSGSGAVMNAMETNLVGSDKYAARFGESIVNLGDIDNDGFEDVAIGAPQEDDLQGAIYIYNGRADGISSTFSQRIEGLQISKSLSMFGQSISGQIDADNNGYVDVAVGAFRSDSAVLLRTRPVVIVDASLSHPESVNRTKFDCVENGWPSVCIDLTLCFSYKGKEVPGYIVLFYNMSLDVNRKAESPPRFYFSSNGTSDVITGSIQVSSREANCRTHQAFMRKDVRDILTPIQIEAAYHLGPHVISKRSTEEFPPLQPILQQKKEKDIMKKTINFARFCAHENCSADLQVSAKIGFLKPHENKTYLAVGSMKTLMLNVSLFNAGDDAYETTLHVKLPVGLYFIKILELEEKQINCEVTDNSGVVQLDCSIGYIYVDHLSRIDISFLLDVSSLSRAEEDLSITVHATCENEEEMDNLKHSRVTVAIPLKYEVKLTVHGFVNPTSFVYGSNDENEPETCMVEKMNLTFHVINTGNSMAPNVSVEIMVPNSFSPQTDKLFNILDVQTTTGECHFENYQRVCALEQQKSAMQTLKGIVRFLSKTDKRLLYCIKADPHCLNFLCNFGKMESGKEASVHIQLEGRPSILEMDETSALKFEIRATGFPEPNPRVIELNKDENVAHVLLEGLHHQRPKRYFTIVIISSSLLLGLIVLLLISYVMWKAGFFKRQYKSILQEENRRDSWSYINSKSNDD

[26] = target: Dual specificity tyrosine-phosphorylation-regulated kinase 1A (Rattus norvegicus, UniProt Q63470); format: biochemical, Homo sapiens
[27] = target: Type-1 angiotensin II receptor (Homo sapiens, UniProt P30556); experiment: AT1 receptor agonists, dose response, selectivity assay for APJ receptor agonist project, cell-based, uHTS hits (AID 488865); format: functional;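 further: beta-arrestin recruitment to AT1 measured by enzyme fragment complementation luminescence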
Type-1 angiotensin II receptor, sequence (P30556 whole entry, the tested form may be a part): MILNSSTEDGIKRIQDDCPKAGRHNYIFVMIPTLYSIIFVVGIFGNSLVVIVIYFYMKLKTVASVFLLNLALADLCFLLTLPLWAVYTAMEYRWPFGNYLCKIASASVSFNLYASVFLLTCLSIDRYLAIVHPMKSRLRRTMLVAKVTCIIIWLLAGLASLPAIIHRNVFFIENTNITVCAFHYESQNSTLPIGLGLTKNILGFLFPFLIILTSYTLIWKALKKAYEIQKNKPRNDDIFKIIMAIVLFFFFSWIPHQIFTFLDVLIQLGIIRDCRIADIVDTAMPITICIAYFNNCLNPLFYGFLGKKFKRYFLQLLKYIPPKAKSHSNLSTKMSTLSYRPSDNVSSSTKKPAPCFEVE

## COc1ccc(N2CCN(C(=O)Nc3ccc(S(N)(=O)=O)cc3)CC2)cc1
[1]
  IC50: 51 µM (active)
[2]
  IC50: > 100 µM (inactive)

## CN1c2ccccc2-c2nc3ccccc3n2C1c1ccncc1 (stereo not given)
CAAX prenyl protease 2 [3]
  AC50: 68.9 µM (active)
CAAX prenyl protease 2 [4]
  AC50: 2.65 µM (active)

## CCOc1cccc(CN2CCN(c3cccc(C(F)(F)F)c3)CC2)c1O
[5]
  Absolute IC50 (CHOP): 10 µM

## CCN(CC)c1ccc(-c2nn3c(-c4[nH]nc5c4CCC5)nnc3s2)cc1
[6]
  EC50: 0.294 µM (active)
[7]
  EC50: 1.21 µM (active)
cells
  EC50: 0.859 µM (active)
[8]
  EC50: 0.377 µM (active)
[9]
  EC50: < 0.1 µM (active)
[10]
  EC50: 0.75 µM (active)
[11]
  EC50: 1.06 µM (active)
J774.A1
  IC50: 0.667 µM (active)
[12]
  EC50: 0.972 µM (active)
[13]
  IC50: 61.1 µM (inactive)
[14]
  IC50: > 20 µM (inactive)

## CC1=CC(=C(C#N)C#N)C=C(C)N1Cc1ccc(Cl)cc1
Troponin, cardiac muscle
  EC50: > 71.5 µM (inactive)

## Cc1cccc(N2CCN(C(=O)c3cc(S(=O)(=O)N(C)C)ccc3Cl)CC2)c1C
Cannabinoid receptor 2 [15]
  IC50: > 32 µM (inactive)
[16]
  EC50: 1.53 µM (active)
Cannabinoid receptor 2 [17]
  EC50: > 32 µM (inactive)
[18]
  EC50: > 32 µM (inactive)
Cannabinoid receptor 1 [19]
  IC50: 15.6 µM (inactive)
Cannabinoid receptor 1 [20]
  EC50: > 32 µM (inactive)
[21]
  IC50: > 32 µM (inactive)

## CC1=CC(=NOC(=O)c2cccc([N+](=O)[O-])c2)C=C(C)C1=O
Coagulation factor XII
  IC50: 1.94 µM (active)

## COc1ccc(C(=O)NC(C(=O)O)c2ccccc2)cc1 (stereo not given)
Hexokinase
  IC50: > 25 µM (inactive)

## c1ccc2c(-c3c[nH]c4ccccc34)c3ccccc3nc2c1
[22]
  EC50: 8.94 µM (active)
Streptokinase A
  EC50: > 150 µM (not active)
[23]
  IC50: 4.83 µM (active)
Streptococcus
  EC50: 15.8 µM (active)

## COc1cccc(-c2sc3ccccc3c2-c2ccc(OCCN3CCCC3)cc2)c1
[24]
  AC50: 2.58 µM (active)
[25]
  IC50: > 20 µM (inactive)
Integrin alpha-4
  EC50: > 42.9 µM (inactive)
[26]
  AC50: 49.2 µM (active)

## CCCCC1=CC2=CC(=O)C(C)(OC(=O)CC)C(=O)C2=CN1C1CCCCC1 (stereo not given)
[27]
  EC50: > 100 µM (inactive)
